Measured values reported in US9796711B2, “Substituted pyrazolo[3,4-b]pyridin-6-carboxylic acids and method of use” (AbbVie S.àr.l., priority 2015, dated 2017).

How the values were obtained:
ΔF508-CFTR [1] = molecular target: T1, ΔF508-CFTR (Homo sapiens, UniProt P13569, DEL508-508); test: CFTR cell surface levels using HRP-tagged ΔF508-CFTR expressing CFBE cells, in the presence of a co-corrector; assay type: cell-based; details: HRP-tagged ΔF508-CFTR expressing CFBE cells, in the presence of 3 μM co-corrector; for EC50: read-out: EC50
T1 construct: host or cells: CFBE41o-, doxycycline-inducible
T1 sequence (P13569 with tags, fused parts or gaps DEL508-508): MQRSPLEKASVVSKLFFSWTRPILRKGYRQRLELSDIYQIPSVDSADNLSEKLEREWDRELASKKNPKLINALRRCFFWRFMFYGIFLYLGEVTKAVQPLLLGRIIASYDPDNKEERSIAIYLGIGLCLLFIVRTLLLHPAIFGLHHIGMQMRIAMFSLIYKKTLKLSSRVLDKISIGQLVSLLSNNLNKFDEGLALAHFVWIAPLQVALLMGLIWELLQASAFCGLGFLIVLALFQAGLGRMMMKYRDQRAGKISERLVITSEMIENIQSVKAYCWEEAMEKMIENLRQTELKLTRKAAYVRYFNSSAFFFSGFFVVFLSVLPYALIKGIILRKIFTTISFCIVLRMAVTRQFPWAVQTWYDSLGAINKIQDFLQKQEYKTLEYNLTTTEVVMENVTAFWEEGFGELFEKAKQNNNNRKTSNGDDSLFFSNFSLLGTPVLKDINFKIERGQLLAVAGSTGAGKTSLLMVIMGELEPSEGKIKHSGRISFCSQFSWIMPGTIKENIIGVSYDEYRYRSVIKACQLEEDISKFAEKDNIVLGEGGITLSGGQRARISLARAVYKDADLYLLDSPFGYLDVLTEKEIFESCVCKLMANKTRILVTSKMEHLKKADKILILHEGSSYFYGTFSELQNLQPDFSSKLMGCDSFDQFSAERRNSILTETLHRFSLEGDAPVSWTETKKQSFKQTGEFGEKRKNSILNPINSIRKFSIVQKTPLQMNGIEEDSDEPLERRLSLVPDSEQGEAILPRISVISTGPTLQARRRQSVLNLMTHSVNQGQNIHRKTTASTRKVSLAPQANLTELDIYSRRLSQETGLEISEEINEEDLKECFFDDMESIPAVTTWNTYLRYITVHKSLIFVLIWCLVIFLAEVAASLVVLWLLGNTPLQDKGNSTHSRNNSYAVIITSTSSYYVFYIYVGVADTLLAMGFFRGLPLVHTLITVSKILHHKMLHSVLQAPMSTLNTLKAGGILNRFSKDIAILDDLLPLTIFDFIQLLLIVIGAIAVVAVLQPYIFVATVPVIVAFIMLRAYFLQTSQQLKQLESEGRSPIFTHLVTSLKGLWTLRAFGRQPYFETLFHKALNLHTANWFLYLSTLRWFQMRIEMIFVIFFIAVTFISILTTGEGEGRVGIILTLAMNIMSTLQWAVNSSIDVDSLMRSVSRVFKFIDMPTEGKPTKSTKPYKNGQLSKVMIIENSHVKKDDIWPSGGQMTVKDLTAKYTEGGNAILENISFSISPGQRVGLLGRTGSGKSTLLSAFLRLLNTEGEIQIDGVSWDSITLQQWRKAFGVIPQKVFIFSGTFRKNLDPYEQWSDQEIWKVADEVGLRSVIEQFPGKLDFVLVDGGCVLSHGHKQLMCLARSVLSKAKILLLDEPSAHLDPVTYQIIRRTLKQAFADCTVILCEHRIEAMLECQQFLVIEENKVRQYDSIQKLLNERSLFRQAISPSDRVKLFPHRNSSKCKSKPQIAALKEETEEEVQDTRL
Outline: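 Cells were seeded with 0.5 μg/mL doxycycline and held 68 h at 37 °C. Test compounds plus 3 μM co-corrector (final 0.1% DMSO) were then added for 20 h at 33 °C. Washed cells received HRP substrate, and luminescence was normalized between DMSO and 3 μM co-corrector controls.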

ΔF508-CFTR [2] = molecular target: T1, ΔF508-CFTR; test: CFTR cell surface levels using HRP-tagged ΔF508-CFTR expressing CFBE cells, intrinsic corrector capacity; assay type: cell-based; details: HRP-tagged ΔF508-CFTR CFBE41o- cells, compounds alone (intrinsic corrector capacity), 20 hours at 33° C.; for % Activation: positive control 3 μM corrector; for EC50: read-out: EC50
Outline: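 Here the cells express ΔF508-CFTR with horseradish peroxidase inserted in extracellular loop 4, so only rescued channel at the surface gives luminescent signal. Compounds act on their own, 20 h at the reduced temperature of 33 °C; values are percent activity relative to DMSO and a 3 μM corrector.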

SMILES	% Activation (ΔF508-CFTR [1]) [%]	EC50 (ΔF508-CFTR [1]) [nM]	% Activation (ΔF508-CFTR [2]) [%]	EC50 (ΔF508-CFTR [2]) [nM]
Cc1nn(-c2ccccc2)c2nc(C(=O)O)cc(N3CCN(CC(=O)N(C)C)CC3)c12 [compound 323, 4-{4-[2-(dimethylamino)-2-oxoethyl]piperazin-1-yl}-3-methyl-1-phenyl-1H-pyrazolo[3,4-b]pyridine-6-carboxylic acid]	128.4	> 10000	8.143	> 10000
Cc1nn(-c2ccccc2)c2nc(C(=O)O)cc(N3CCC(N4CCOCC4)CC3)c12 [compound 324, 3-methyl-4-[4-(morpholin-4-yl)piperidin-1-yl]-1-phenyl-1H-pyrazolo[3,4-b]pyridine-6-carboxylic acid]	279.1	2510	93.32	2510
CC(C)c1nn(-c2ccc(F)cc2F)c2nc(C(=O)O)cc(-c3cnc(N4CCC(C#N)CC4)nc3)c12 [compound 325, 4-[2-(4-cyanopiperidin-1-yl)pyrimidin-5-yl]-1-(2,4-difluorophenyl)-3-(propan-2-yl)-1H-pyrazolo[3,4-b]pyridine-6-carboxylic acid]	389.75	779	177.1	1200
CC(C)c1nn(-c2ccc(F)cc2F)c2nc(C(=O)O)cc(-c3ccc(N4CCC(C#N)CC4)nc3)c12 [compound 326, 4-[6-(4-cyanopiperidin-1-yl)pyridin-3-yl]-1-(2,4-difluorophenyl)-3-(propan-2-yl)-1H-pyrazolo[3,4-b]pyridine-6-carboxylic acid]	360.83	574	180.53	977
CC(C)c1nn(-c2ccc(F)cc2F)c2nc(C(=O)O)cc(-c3ccc(N4CCC(C#N)CC4)cc3)c12 [compound 327, 4-[4-(4-cyanopiperidin-1-yl)phenyl]-1-(2,4-difluorophenyl)-3-(propan-2-yl)-1H-pyrazolo[3,4-b]pyridine-6-carboxylic acid]	335.63	241	176	369
CC(C)c1nn(-c2cccc(N(C)C)c2)c2nc(C(=O)O)cc(N3CCCCC3)c12 [compound 328, 1-[3-(dimethylamino)phenyl]-4-(piperidin-1-yl)-3-(propan-2-yl)-1H-pyrazolo[3,4-b]pyridine-6-carboxylic acid]	422.25	463	196.9	671
CC(C)c1nn(-c2cccc(N(C)C)c2)c2nc(C(=O)O)cc(N3CCC(C#N)CC3)c12 [compound 329, 4-(4-cyanopiperidin-1-yl)-1-[3-(dimethylamino)phenyl]-3-(propan-2-yl)-1H-pyrazolo[3,4-b]pyridine-6-carboxylic acid]	454.57	307	239.4	558
COC1CCN(c2cc(C(=O)O)nc3c2c(C(C)C)nn3-c2cccc(N(C)C)c2)CC1 [compound 330, 1-[3-(dimethylamino)phenyl]-4-(4-methoxypiperidin-1-yl)-3-(propan-2-yl)-1H-pyrazolo[3,4-b]pyridine-6-carboxylic acid]	509.93	197	326.43	405
CC(C)c1nn(-c2cccc(N(C)C)c2)c2nc(C(=O)O)cc(N3CCC(CO)CC3)c12 [compound 331, 1-[3-(dimethylamino)phenyl]-4-[4-(hydroxymethyl)piperidin-1-yl]-3-(propan-2-yl)-1H-pyrazolo[3,4-b]pyridine-6-carboxylic acid]	513.57	390	311.73	1050
Cc1nn(-c2ccccc2)c2nc(C(=O)O)cc(O[C@H]3C[C@@H](N4CCS(=O)(=O)CC4)C3)c12 [compound 333, 4-{[cis-3-(1,1-dioxo-1λ^6,4-thiazinan-4-yl)cyclobutyl]oxy}-3-methyl-1-phenyl-1H-pyrazolo[3,4-b]pyridine-6-carboxylic acid]	150.85	4110	27.26	4170
Cc1nn(-c2ccccc2)c2nc(C(=O)O)cc(OCCN3CCS(=O)(=O)CC3)c12 [compound 334, 4-[2-(1,1-dioxo-lλ^6,4-thiazinan-4-yl)ethoxy]-3-methyl-1-phenyl-1H-pyrazolo[3,4-b]pyridine-6-carboxylic acid]	226.6	1900	36.645	4170
Cc1nn(-c2ccccc2)c2nc(C(=O)O)cc(OC[C@@H](F)C3CCOCC3)c12 [compound 335, 4-[(2S)-2-fluoro-2-(oxan-4-yl)ethoxy]-3-methyl-I-phenyl-1H-pyrazolo[3,4-b]pyridine-6-carboxylic acid]	259.25	1380	100.33	1610
Cc1nn(-c2ccccc2)c2nc(C(=O)O)cc(OC[C@H](F)C3CCOCC3)c12 [compound 336, 4-[(2R)-2-fluoro-2-(oxan-4-yl)ethoxy]-3-methyl-1-phenyl-1H-pyrazolo[3,4-b]pyridine-6-carboxylic acid]	297.8	1320	118.2	1370
Cc1nn(-c2ccccc2)c2nc(C(=O)O)cc(O[C@H]3CCN(C)C3)c12 [compound 337, 3-methyl-4-{[(3S)-1-methylpyrrolidin-3-yl]oxy}-1-phenyl-1H-pyrazolo[3,4-b]pyridine-6-carboxylic acid]	139.85	4170	15.48	7500
Cc1nn(-c2ccccc2)c2nc(C(=O)O)cc(O[C@@H]3CCN(C)C3)c12 [compound 338, 3-methyl-4-{[(3R)-1-methylpyrrolidin-3-yl]oxy}-1-phenyl-1H-pyrazolo[3,4-b]pyridine-6-carboxylic acid]	135.7	7500	12.64	7500
Cc1nn(-c2ccccc2)c2nc(C(=O)O)cc(OC3CCN(C)CC3)c12 [compound 339, 3-methyl-4-[(1-methylpiperidin-4-yl)oxy]-1-phenyl-1H-pyrazolo[3,4-b]pyridine-6-carboxylic acid]	126.85	7500	15.162	7500
Cc1nn(-c2ccccc2)c2nc(C(=O)O)cc(O[C@H]3C[C@@H](N(C)C)C3)c12 [compound 340, 4-{[cis-3-(dimethylamino)cyclobutyl]oxy}-3-methyl-1-phenyl-1H-pyrazolo[3,4-b]pyridine-6-carboxylic acid]	146	4170	18.86	7500
Cc1nn(-c2ccccc2)c2nc(C(=O)O)cc(OC3COC3)c12 [compound 341, 3-methyl-4-[(oxetan-3-yl)oxy]-1-phenyl-1H-pyrazolo[3,4-b]pyridine-6-carboxylic acid]	149.55	4090	25.115	4170
Cc1nn(-c2ccccc2)c2nc(C(=O)O)cc(OCCN3CCCC3)c12 [compound 342, 3-methyl-1-phenyl-4-[2-(pyrrolidin-1-yl)ethoxy]-1H-pyrazolo[3,4-b]pyridine-6-carboxylic acid]	138.5	3370	19.4	7500
Cc1nn(-c2ccccc2)c2nc(C(=O)O)cc(O[C@@H]3CCCN(C)C3)c12 [compound 343, 3-methyl-4-{[(3R)-1-methylpiperidin-3-yl]oxy}-1-phenyl-1H-pyrazolo[3,4-b]pyridine-6-carboxylic acid]	104.7	7500	11.085	7500
Cc1nn(-c2ccccc2)c2nc(C(=O)O)cc(OC3CC4(COC4)C3)c12 [compound 344, 3-methyl-4-[(2-oxaspiro[3.3]heptan-6-yl)oxy]-1-phenyl-1H-pyrazolo[3,4-b]pyridine-6-carboxylic acid]	218.25	1770	69.225	2510
Cc1nn(-c2ccccc2)c2nc(C(=O)O)cc(O[C@H]3C[C@H](N4CCCCC4)C3)c12 [compound 345, 3-methyl-1-phenyl-4-{[trans-3-(piperidin-1-yl)cyclobutyl]oxy}-1H-pyrazolo[3,4-b]pyridine-6-carboxylic acid]	129.4	4170	23.411	4170
Cc1nn(-c2ccccc2)c2nc(C(=O)O)cc(O[C@H]3C[C@@H](N4CCCCC4)C3)c12 [compound 346, 3-methyl-1-phenyl-4-{[cis-3-(piperidin-1-yl)cyclobutyl]oxy}-1H-pyrazolo[3,4-b]pyridine-6-carboxylic acid]	151.2	4170	20.555	7500
Cc1nn(-c2ccccc2)c2nc(C(=O)O)cc(OCCC3CC(F)(F)C3)c12 [compound 347, 4-[2-(3,3-difluorocyclobutyl)ethoxy]-3-methyl-1-phenyl-1H-pyrazolo[3,4-b]pyridine-6-carboxylic acid]	259.55	1410	79.835	1410
